# In patent publication US5147871A, “Anti-bacterial cephalosporin compounds” (Hoffmann La-Roche, Inc., priority 1991, dated 1992):
# Counter-ions that a name gives are not always drawn. Like-named read-outs stand apart in the source and are kept apart here.
# What was measured:
# Format in all cases: cell-based
# [1] = system: P. vulgaris ATCC 6380; experiment: In vitro MIC, Broth Dilution Method, P. vulgaris ATCC 6380; settings: Proteus vulgaris
# From the text: (§1) The in vitro activity of the compounds of the present invention as measured by the Minimum Inhibitory Concentration in micrograms/ml utilizing the Agar Well Diffusion Method or Broth Dilution Method against a variety of Gram-positive and Gram-negative organisms is as follows:
# (§2) In vitro MIC (μg/ml) Broth Dilution Method
# [2] = system: S. marcescens SM; experiment: In vitro MIC, Broth Dilution Method, S. marcescens SM; settings: Serratia marcescens
# From the text: as §1, §2
# [3] = system: P. aeruginosa 503-56; experiment: In vitro MIC, Broth Dilution Method, P. aeruginosa 503-56; settings: Pseudomonas aeruginosa, 50356
# From the text: as §1, §2
# [4] = system: S. aureus 95; experiment: In vitro MIC, Broth Dilution Method, S. aureus 95; settings: Staphylococcus aureus
# From the text: as §1, §2
# [5] = system: K. pneumoniae A; experiment: In vitro MIC, Broth Dilution Method, K. pneumoniae A; settings: Klebsiella pneumoniae
# [6] = system: P. aeruginosa Stone 130; experiment: In vitro MIC, Broth Dilution Method, P. aeruginosa Stone 130; settings: Pseudomonas aeruginosa, STONE130
# From the text: as §1, §2
# [7] = system: E. cloacae 7099; experiment: In vitro MIC, Broth Dilution Method, E. cloacae 7099; settings: Enterobacter cloacae
# [8] = system: E. coli 48; experiment: In vitro MIC, Broth Dilution Method, E. coli 48; settings: Escherichia coli
# [9] = system: P. mirabilis 190; experiment: In vitro MIC, Broth Dilution Method, P. mirabilis 190; settings: Proteus mirabilis
# [10] = system: S. aureus Smith; experiment: In vitro MIC, Broth Dilution Method, S. aureus Smith; settings: Staphylococcus aureus
# [11] = system: E. cloacae 9570A; experiment: In vitro MIC, Broth Dilution Method, E. cloacae 9570A; settings: Enterobacter cloacae
# From the text: as §1, §2
# [12] = system: E. cloacae 214; experiment: In vitro MIC, Broth Dilution Method, E. cloacae 214; settings: Enterobacter cloacae
# From the text: as §1, §2
# [13] = system: E. cloacae 948-1; experiment: In vitro MIC, Broth Dilution Method, E. cloacae 948-1; settings: Enterobacter cloacae, 9481
# From the text: as §1, §2
# [14] = system: E. cloacae 2367-2; experiment: In vitro MIC, Broth Dilution Method, E. cloacae 2367-2; settings: Enterobacter cloacae, 23672
# From the text: as §1, §2
# [15] = ATCC6380, P. vulgaris ATCC 6380, Broth Dilution Method, read-out: In vitro MIC
Structure (SMILES),"MIC [1, 15] [µg/mL]",MIC [2] [µg/mL],MIC [3] [µg/mL],MIC [4] [µg/mL],MIC [5] [µg/mL],MIC [6] [µg/mL],MIC [7] [µg/mL],MIC [8] [µg/mL],MIC [9] [µg/mL],MIC [10] [µg/mL],MIC [11] [µg/mL],MIC [12] [µg/mL],MIC [13] [µg/mL],MIC [14] [µg/mL],"MIC ([1]; ATCC6380, read-out: In vitro MIC) [µg/mL]"
"CCn1cc(C(=O)OCC2=C(C(=O)O)N3C(=O)[C@@H](NC(=O)COc4ccccc4)[C@H]3SC2)c(=O)c2cc(F)c(N3CCCC3)cc21 [Compound H, [6R-(6alpha,7beta)]-3-[[[[1-Ethyl-6-fluoro-1,4-dihydro-7-(1-pyrrolidinyl)-4-oxo-quinolin-3-yl]carbonyl]oxy]methyl]-8-oxo-7-[(phenoxyacetyl)amino]-5-thia-1-azabicyclo[4.2.0]oct-2-ene-2-carboxylic acid sodium salt]",32,32,64,0.5,32,32,2,32,0.5,0.25,32,32,32,32,–
"CCn1cc(C(=O)OCC2=C(C(=O)O)N3C(=O)[C@@H](NC(=O)COc4ccccc4)[C@H]3SC2)c(=O)c2ccc(C)nc21 [Compound A, [6R-(6alpha,7beta)]-3-[[[(1-Ethyl-1,4-dihydro-7-methyl-4-oxo-1,8-naphthydrin-3-yl)carbonyl]oxy]methyl]-8-oxo-7-[(phenoxyacetyl)amino]-5-thia-1-azabicyclo[4.2.0]oct-2-ene-2-carboxylic acid hydrate]",8,16,128,–,16,128,16,32,8,0.25,64,128,–,–,–
"CCn1cc(C(=O)OCC2=C(C(=O)O)N3C(=O)[C@@H](NC(=O)COc4ccccc4)[C@H]3SC2)c(=O)c2cc(F)c(N3CCN(C=O)CC3)cc21 [Compound E, [6R-(6alpha,7beta)]-3-[[[[1-Ethyl-6-fluoro-1,4-dihydro-7-(4-formyl-1-piperazinyl)-4-oxo-quinolin-3-yl]-carbonyl]oxy]methyl-8-oxo-7-[(phenoxyacetyl)amino]-5-thia-1-azabicyclo[4.2.0]oct-2-ene-2-carboxylic acid sodium salt]",4,4,32,2,2,16,2,–,0.5,0.063,8,8,8,4,–
"CCn1cc(C(=O)OCC2=C(C(=O)O)N3C(=O)[C@@H](NC(=O)COc4ccccc4)[C@H]3SC2)c(=O)c2cc3c(cc21)OCO3 [Compound B, [6R-(6alpha,7beta)]-3-[[[(5-Ethyl-5,8-dihydro-8-oxo-1,3-dioxolo[4,5-g]quinolin-7-yl)carbonyl]oxy]methyl]-8-oxo-7-[(phenoxyacetyl)amino]-5-thia-1-azabicyclo[4.2.0]oct-2-ene-2-carboxylic acid monosodium salt]",0.5,1,64,4,1,32,–,2,–,0.25,2,2,2,1,–
"CCn1cc(C(=O)OCC2=C(C(=O)O)N3C(=O)[C@@H](NC(=O)/C(=N\OC)c4csc(N)n4)[C@H]3SC2)c(=O)c2cc(F)c(N3CCCC3)cc21 [Compound I, [6R-(6alpha,7beta)(Z)]-7-[[(2-Amino-4-thiazolyl) (methoxyimino)acetyl]amino]-3-[[[[1-ethyl-6-fluoro-1,4-dihydro-7-(1-pyrrolidinyl)-4-oxoquinolin-3-yl]-carbonyl]oxy]methyl]-8-oxo-5-thia-1-azabicyclo[4.2.0]oct-2-ene-2-carboxylic acid sodium salt]",0.5,1,32,0.5,0.5,8,2,0.5,0.031,0.25,2,4,4,4,–
"CCn1cc(C(=O)OCC2=C(C(=O)O)N3C(=O)[C@@H](NC(=O)Cc4cccs4)[C@H]3SC2)c(=O)c2cc(F)c(N3CCN(C=O)CC3)cc21 [Compound G, [6R-(6alpha,7beta)]-3-[[[[1-Ethyl-6-fluoro-1,4-dihydro-7-(4-formyl-1-piperazinyl)-4-oxoquinolin-3-yl]-carbonyl]oxy]methyl]-7-[(2-thienylacetyl)amino]-5-thia-1-azabicyclo[4.2.0]oct-2-ene-2-carboxylic acid sodium salt]",4,4,64,4,4,32,2,8,4,0.25,8,64,8,32,–
"CCn1cc(C(=O)OCC2=C(C(=O)O)N3C(=O)[C@@H](NC(=O)/C(=N\OC)c4csc(N)n4)[C@H]3SC2)c(=O)c2cc3c(cc21)OCO3 [Compound D, [6R-(6alpha,7beta)(Z)]-7-[[(2-Amino-4-thiazolyl) (methoxyimino)acetyl]amino]-3-[[[(5-ethyl-5,8-dihydro-8-oxo-1,3-dioxolo[4,5-g]quinolin-7-yl)carbonyl]oxy]methyl]-8-oxo-5-thia-1-azabicyclo [4.2.0]oct-2-ene-2-carboxylic acid sodium salt]",–,0.5,32,4,–,16,0.5,–,0.008,2,1,0.5,1,2,0.063
"CCn1cc(C(=O)OCC2=C(C(=O)O)N3C(=O)[C@@H](NC(=O)/C(=N\OC)c4csc(N)n4)[C@H]3SC2)c(=O)c2ccc(C)nc21 [Compound C, [6R-(6alpha,7beta)(Z)]-7-[[(2-Amino-4-thiazolyl) (methoxyimino)acetyl]amino]-3-[[[(1-ethyl-1,4-dihydro-7-methyl-4-oxo-1,8-naphthyridin-3-yl)carbonyl]oxy]methyl]-8-oxo-5-thia-1-azabicyclo [4.2.0]oct-2-ene-2-carboxylic acid sodium salt]",0.25,1,128,8,–,128,8,0.5,0.16,2,2,8,8,16,–
"CCn1cc(C(=O)OCC2=C(C(=O)O)N3C(=O)[C@@H](NC(=O)Cc4cccs4)[C@H]3SC2)c(=O)c2cc3c(cc21)OCO3 [Compound F, [6R-(6alpha,7beta)]-3-[[[(5-Ethyl-5,8-dihydro-8-oxo-1,3-dioxolo[4,5-g]quinolin-7-yl)carbonyl]oxy]methyl]-8-oxo-7-[(2-thienylacetyl)amino]-5-thia-1-azabicyclo-[4.2.0]oct-2-ene-2-carboxylic acid sodium salt]",0.5,1,64,4,1,32,–,2,0.5,–,2,2,1,1,–
